Measured values: paper PMC3795654, “Combinatorial Optimization of Cystine-Knot Peptides towards High-Affinity Inhibitors of Human Matriptase-1” (PLoS ONE, 2013)
Where two headings read alike, the source gives them in different places. Where a SMILES comes first, the peptide text is derived from it. Bridges are numbered along the chain shown (N, C = ends).

What was measured:
[1] = biological target: thrombin; assay: Selectivity assay, thrombin inhibition; assay type: biochemical; conditions: duplicates; 5 nM protease; no inhibition observed at 10 µM inhibitor concentration
Protocol: (§5) Apparent inhibition constants (Ki ^app) were calculated by fitting the Morrison equation (1) for tight-binding inhibitors to the relative reaction velocity using non-linear regression (Marquardt-Levenberg algorithm, Sigma Plot 11) [63].

[2] = biological target: T1, Bovine pancreatic trypsin (Bos taurus, UniProt P00760); assay: Trypsin inhibition assay (substrate-independent Ki); assay type: biochemical; conditions: substrate-independent Ki from Ki app (Morrison equation) and Km; 250 µM substrate; preincubation 30 min RT; read over 30 min; triplicate
T1 construct: purchased Sigma-Aldrich
T1 sequence (P00760 24-246): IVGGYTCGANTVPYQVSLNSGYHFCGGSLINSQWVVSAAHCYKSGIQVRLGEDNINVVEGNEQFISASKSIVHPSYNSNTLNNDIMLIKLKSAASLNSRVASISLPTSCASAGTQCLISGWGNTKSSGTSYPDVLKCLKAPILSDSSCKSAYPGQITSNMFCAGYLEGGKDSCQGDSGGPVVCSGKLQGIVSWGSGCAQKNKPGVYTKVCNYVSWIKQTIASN
Protocol: as §5

[3] = system: uPA activation by matriptase-1 on the surface of PC-3 cells; assay: Cell inhibition assay: uPA activation by matriptase-1 on the surface of PC-3 cells; assay type: cell-based, human
Protocol: Human prostate cancer cells (PC-3, Merck KGaA) were cultured in DMEM medium with 10% FCS at 37°C and 5% CO2, washed with cation-free PBS and harvested by scraping. 1×10^5 cells were incubated in presence of 250 µM Bz-β-Ala-Gly-Arg-pNA·AcOH (American Diagnostica), which is a specific […] of urokinase, and the inhibitor of interest in defined dilutions overnight. Product formation was monitored at 405 nm before and after incubation in a microplate reader. IC50 was calculated by non-linear regression using SigmaPlot 11.
Urokinase-type plasminogen activator (uPA) causes the degradation of the extracellular matrix and plays a critical role in tumor invasion and metastasis, [73]. It was shown that activation of receptor-bound pro-uPA is affected by matriptase-1, which results in a decreased ability of uPAexpressing tumor cells to invade an extracellular matrix layer upon inhibition of membrane-bound matriptase-1 [72].
For the indirect determination of the IC50 of SOTI Var. 1 and MCoTI Var. 4 on the surface of these cancer cells, the turnover of an uPA substrate was monitored. Pro-uPA is activated through non-inhibited matriptase-1 and substrate turnover was measured and compared to the previously reported small molecule inhibitor S1 of matriptase-1 (Figure 4). In this experimental setting, the MCoTI-based inhibitor Var. […] 4 in this assay.
Figure 4 Inhibition assay of uPA activation by matriptase-1 on the surface of PC-3 cells. Depicted is the logarithmic inhibitor concentration against the absorption at 405 TEXT PRINTED IN THE PICTURE: MCoTI Var.

[4] = biological target: Hepsin (Homo sapiens, UniProt P05981); assay: biochemical
Sequence of Hepsin (P05981 whole entry): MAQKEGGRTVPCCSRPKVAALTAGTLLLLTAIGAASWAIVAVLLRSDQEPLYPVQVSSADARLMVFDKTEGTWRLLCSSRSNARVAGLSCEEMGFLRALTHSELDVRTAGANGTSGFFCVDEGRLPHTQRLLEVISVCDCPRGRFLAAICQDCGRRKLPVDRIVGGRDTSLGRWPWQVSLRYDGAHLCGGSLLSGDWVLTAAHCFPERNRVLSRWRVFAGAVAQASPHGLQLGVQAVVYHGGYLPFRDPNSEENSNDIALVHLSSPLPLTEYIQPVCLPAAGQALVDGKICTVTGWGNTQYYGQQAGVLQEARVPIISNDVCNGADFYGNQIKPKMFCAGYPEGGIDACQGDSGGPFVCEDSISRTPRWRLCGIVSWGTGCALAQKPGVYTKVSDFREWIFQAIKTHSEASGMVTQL
Protocol: (§1) Human matriptase-1 was produced recombinantly, autocatalytically activated and purified as previously reported, [49], [51], [60]. Bovine pancreatic trypsin, thrombin and uPA were purchased from Sigma-Aldrich and Hepsin from R&D Systems.
(§2) Measurements were carried out in triplicate using a Tecan Genios ELISA reader. The normalized residual proteolytic activity (v/v0) of proteases was determined using substrates Boc-QAR-pNA (250 µM, (pNA stands for para-nitro aniline), Boc-QAR-AMC (250 µM, AMC stands for amino-methyl coumarin) or Spectrozym tPA (250 µM, American Diagnostica, CH3SO2-D-CHT-Gly-Arg-pNA AcOH). Product formation was monitored after preincubation (30 min, RT) with inhibitor at different concentrations over 30 min by measuring the absorbance at 405 nm for pNA substrates or the fluorescence emission for AMC substrates (ex. 360 nm, em. 465 nm), respectively. Selectivity data were carried out in duplicates with final protease concentrations of uPA and thrombin of 5 nM. In case of hepsin 50 mM Tris/HCl pH 9.0 was used as assay buffer.
(§3) Apparent inhibition constants (Ki ^app) were calculated by fitting the Morrison equation (1) for tight-binding inhibitors to the relative reaction velocity using non-linear regression (Marquardt-Levenberg algorithm, Sigma Plot 11). [drawing 1] (1) [drawing 2] (2)
(§4) Substrate-independent inhibition constants Ki were calculated from Ki ^app and Km of the enzyme according to (2). The Michaelis-Menten constant Km for the substrates and proteases were determined previously, [64].

[5] = biological target: uPA (Homo sapiens, UniProt P00749); assay: biochemical
Protocol: as §1, §2, §3, §4

[6] = biological target: T2, Human matriptase-1 (Homo sapiens, UniProt Q9Y5Y6); assay: Matriptase-1 inhibition assay (Ki / Ki app); assay type: biochemical; conditions: substrate-independent Ki from Ki app (Morrison equation) and Km; 250 µM substrate; preincubation 30 min RT; read over 30 min; triplicate; read-out: Ki (Matriptase-1)
T2 construct: made in house
T2 sequence (Q9Y5Y6 615-855 limits assumed): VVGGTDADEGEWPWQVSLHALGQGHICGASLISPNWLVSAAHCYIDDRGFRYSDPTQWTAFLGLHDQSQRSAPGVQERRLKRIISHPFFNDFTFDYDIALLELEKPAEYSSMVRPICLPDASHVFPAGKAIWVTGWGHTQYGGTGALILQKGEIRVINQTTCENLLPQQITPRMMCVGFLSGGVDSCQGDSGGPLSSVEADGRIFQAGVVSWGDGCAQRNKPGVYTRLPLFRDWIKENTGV
Protocol: (§6) Human matriptase-1 was produced recombinantly, autocatalytically activated and purified as previously reported [35], [49], [51], [60].
as §5

[7] = system: Human matriptase-1; assay: Matriptase-1 inhibition assay (Ki / Ki app); assay type: biochemical; conditions: ratio of Ki values of Table 1
Protocol: as §6, §5

CC[C@H](C)[C@@H]1NC(=O)[C@@H]2CSSC[C@H](NC(=O)[C@@H](NC(=O)CNC(=O)[C@@H](N)Cc3c[nH]c4ccccc34)C(C)C)C(=O)N3CCC[C@H]3C(=O)N[C@@H](CCCCN)C(=O)N[C@@H](C(C)C)C(=O)N[C@@H](CC(C)C)C(=O)N[C@@H](CCCNC(=N)N)C(=O)N[C@@H](CC(N)=O)C(=O)N[C@H]3CSSC[C@H](NC1=O)C(=O)N[C@@H](CC(C)C)C(=O)NCC(=O)N[C@@H](CC(N)=O)C(=O)NCC(=O)N[C@@H](Cc1ccc(O)cc1)C(=O)N[C@H](C(=O)NCC(N)=O)CSSC[C@H](NC(=O)[C@H](CC(=O)O)NC(=O)[C@H](CO)NC(=O)[C@H](CC(=O)O)NC(=O)[C@H](CCCNC(=N)N)NC(=O)[C@H](CCCNC(=N)N)NC3=O)C(=O)N1CCC[C@H]1C(=O)NCC(=O)N[C@@H](C)C(=O)N2 [MCoTI Var. 4] (H-WGVCPKVLRNCRRDSDCPGACICLGNGYCG-NH2; disulfide 4-21, 11-23, 17-29)
Ki [1]: > 10000 nM
Ki [2]: 35.8 ± 4.7 nM
IC50 ([3]; 1×10^5 PC-3 cells, 250 µM Bz-β-Ala-Gly-Arg-pNA, overnight, absorbance 405 nm, read-out: IC50 (uPA substrate turnover on PC-3 cells)): 213 nM
potency relative to recently described peptidomimetic small-molecule inhibitors ([3]; PC-3 cells, IC50 comparison (Figure 4)): 10 fold
Ki [4]: > 10000 nM
Ki ([4]; read-out: Ki (Hepsin), duplicates, 50 mM Tris/HCl pH 9.0, no inhibition observed at 10 µM inhibitor concentration): > 10000 nM
Ki [5]: > 10000 nM
Ki [6]: 0.83 ± 0.14 nM
inhibitory activity for matriptase-1 relative to trypsin [7]: approximately fortyfold higher
